Entries after “also recorded” stand apart in the source; their conditions may differ. Read-outs that look alike come from different tables or passages of the source.
What was measured:
[1] = Pharmacokinetic evaluation in mice (plasma and brain); type: in vivo, male NMRI mice; settings: for Kp / half-life / Tmax / Cmax: male, NMRI, mouse; for Kp: brain/plasma, single oral administration of 20 mg/kg
Method: Compounds S1 and S2 were formulated at 0.4 mg/mL in 7.5% NMP, 10% Kolliphor in 0.9% NaCl (for i.v. administration) and at 2.0 mg/mL in 0.1% Tween 80, 0.5% Na-CMC in water (for p.o. administration).
The pharmacokinetic properties of S1 and S2 were determined in male NMRI mice (Charles River, Germany) following single intravenous (i.v., tail vein, 2 mg/kg) or per oral (p.o, gavage, 20 mg/kg). Light isoflurane anaesthesia was used at i.v. administration, no anaesthesia was used at p.o. administration. Blood samples were kept on ice after sampling and centrigued at +4 °C, 1800 x g for 5 minutes to prepare plasma. Blood and homogenized brain samples were taken from animals at the following nominal time points: 15, 30, and 60 minutes, and 2, 4, 6, 8, 24, 48, 72 and 144 hours after dosing (n=3 samples/time-point). Blood sampling (400-600 microliters) was performed by orbital plexus collection under isoflurane anaesthesia into EDTA plasma tubes (BD Microtainer K2EDTA). Bioanalytical quantification of S1 and S2 was analysed in plasma and brain samples by a UPLC-MS/MS. Pharmacokinetics were calculated by non-compartmental analysis (NCA) from composite (mean) profiles using Phoenix WinNonlin Professional (v 6.3). Nominal sampling times and dose levels have been used for the NCA calculations. All animals dosed with S1 and S2 were systemically exposed to the test compound. The plasma and brain concentrations were detectable and analysed until 144 h.
Brain sampling was performed after the end of blood sampling at the specified time points following euthanization and skull extraction. Brains were weighed and placed in test tubes and placed on wet ice. 4 mL PBS (pH 7.4) per 1 g of brain tissue was added to the test tube and brains were then homogenized using an Ultra-Turrax T25 homogenisator (Setting 2, 9500 rpm, 10s). The homogenates were frozen at -20° C immediately after homogenization.

[2] = system: glioblastoma cell line U3013; experiment: ATP viability assay (CellTiter-Glo); type: cell-based, human
Method: The human melanoma cell line SK-MEL-28 is a well established reference cell line in melanoma research (Goodfellow M, et al. J. Natl. Cancer Inst. 59: 221-226, 1977). Cells were cultured in MEM supplemented with 10% FCS. Glioblastoma cell line (U3013) was generated directly from patient-derived tumors (Kitambi et al. Cell. 2014: 157(2):313-28) and grown in serum-free media supplemented with N2, B27, EGF, and FGF-2 (20 ng/ml) using previously described methodology (Pollard et al., 2009).
Culture plates were pre-coated with laminin (Sigma) for 3 hr at 10 ug/ml prior to use and confluent cells were split 1:3 to 1:5 using TrypLE Express (Invitrogen).
Viability assay was conducted in 96 well microtiter plates seeded with 3000 cells. Cell viability was measured using CellTiter-Glo assay (Promega), according to the manufacturer's instructions. Luminescence was measured using Victor3 FA (Perkin Elmer) microtiter plate reader. Total luminescence was normalized relative to negative control and curve fitting performed using GraphPad Prism (v6.02) software. IC50 was determined using Cell Viability assay, and data was illustrated using GraphPad Prism (version 6.02)

Brain AUC last ([1]; brain, i.v., 2 mg/kg): 52.7 µg·h/mL
Brain Cmax ([1]; brain, i.v., 2 mg/kg): 1970 ng/mL
Brain tlast ([1]; brain, i.v., 2 mg/kg): 144 h
Brain AUC last ([1]; brain, p.o., 20 mg/kg): 400 µg·h/mL
Brain Cmax ([1]; brain, p.o., 20 mg/kg): 4840 ng/mL
Brain tlast ([1]; brain, p.o., 20 mg/kg): 144 h
Kp ([1]; po, 20 mg/kg, read-out: exposure ratio AUC(brain/plasma)): 1.6
Kp ([1]; po, 20 mg/kg, read-out: exposure ratio Cmax(brain/plasma)): 2.2
half-life ([1]; iv, brain, i.v., 2 mg/kg, read-out: Brain T1/2 (converted)): 67 h
Tmax ([1]; iv, brain, i.v., 2 mg/kg, read-out: Brain tmax): 0.25 h
Cmax ([1]; iv, plasma, 2 mg/kg): 775 ng/mL
half-life ([1]; iv, plasma, i.v., 2 mg/kg, read-out: Plasma T1/2 (converted)): 84 h
Tmax ([1]; iv, plasma, i.v., 2 mg/kg, read-out: Plasma tmax): 4 h
Tmax ([1]; po, brain, p.o., 20 mg/kg, read-out: Brain tmax): 8 h
Cmax ([1]; po, plasma, 20 mg/kg): 2210 ng/mL
Tmax ([1]; po, plasma, p.o., 20 mg/kg, read-out: Plasma tmax): 4 h
Plasma AUC last ([1]; plasma, i.v., 2 mg/kg): 62 µg·h/mL
Plasma tlast ([1]; plasma, i.v., 2 mg/kg): 144 h
Plasma AUC last ([1]; plasma, p.o., 20 mg/kg): 246 µg·h/mL
Plasma tlast ([1]; plasma, p.o., 20 mg/kg): 144 h
IC50 ([2]; Homo sapiens, U3013, positive control cell line, 24, 48 and 72 h): 1900 to 3500 nM
Compound: O[C@H](c1cc(-c2ccc(Cl)cc2)nc2ccccc12)[C@@H]1CCCCN1 [S1, (R)-(2-(4-chlorophenyl)quinolin-4-yl)((S)-piperidin-2-yl)methanol]
in vitro cytotoxicity, comparison of isolated isomers ([2]; U3013, dose response, CellTiterGlo ATP quantification): S1 and S2 exhibit greater in vitro oncolytic potency than the corresponding S3 and S4 isomers; also recorded: S1 and S2 exhibit higher cytotoxicity on cancer cells than S3 and S4
